Laboratory results from US20130309736A1, “COMPOSITIONS AND METHODS FOR MALATE AND FUMARATE PRODUCTION” (CARGILL, INCORPORATED, priority 2011, published 2013).

What was measured:
[1] = 15.5° C.; cited from earlier work
yeast cells = experiment: EMS mutagenesis, kill rate; format: cell-based; settings: 3 μL EMS in 200 μL cell suspension (OD600 around 10), approximately one hour
Procedure: For example, yeast cells from a fresh YP (yeast extract/peptone)+20 g/L glucose plate or liquid culture (OD600 1-4) are resuspended in sterile water to an OD600 of around 10. 200 μL aliquots of this cell suspension are pipetted into individual tubes and exposed to 3 μL […] (EMS) for approximately one hour, which kills around 65% of the cells. Higher EMS concentrations can also be used to increase the kill rate. After exposure, cells are neutralized with 5% sodium thiosulfate, washed in PBS buffer, recovered in rich media for approximately four hours, and cultured on selective media. Mock samples (no EMS) are also run to ensure that the conditions are selective. Alternatively, cell can be mutagenized using UV irradiation.

[2] = system: Candida guilliermondii ATCC 20118; experiment: Growth rate in YPD shake flasks (first secondary screen); format: cell-based
Procedure: (§1) For the first secondary screen, growth rates were measured in YPD media containing 0 g/L malate at pH 3.0 or 200 g/L malate at pH 2.85. Shake flasks were inoculated with biomass harvested from seed flasks grown overnight to an OD600 of 6 to 10. 250 mL baffled growth rate flasks (50 mL working volume) were inoculated to an OD600 of 0.1 and grown at 250 rpm and 30° C. Samples were taken throughout the time course of the assay and analyzed for biomass growth via OD600. The resulting OD600 data was plotted and growth rates were established.

[3] = system: Candida sorbosivorans CD1978; experiment: as above; format: cell-based
Procedure: as §1

[4] = system: Candida vanderwaltii MUCL 30000; experiment: as above; format: cell-based
Procedure: as §1

[5] = system: Issatchenkia orientalis ATCC 60585; experiment: as above; format: cell-based
Procedure: as §1

[6] = system: Candida lambica ATCC 38617; experiment: as above; format: cell-based
Procedure: as §1
(§2) The same procedures were utilized to screen, rate, and score the original 91 wild-type yeast strains from the primary screen with media containing 0, 30, 45, and 60 g/L lactic acid at pH 3.0 (˜80% free acid). Due to difficulties in properly scoring some very weak growth that occasionally occurred at 60 g/L, 20 strains were re-tested in the primary screen. Of these 20 strains, eight were eliminated due to very slow growth relative to the rest of the test group. The remaining 12 strains were advanced into secondary screening. The secondary screen for lactic acid was the same as that described above for malate, except for changes in concentrations and pH values. Growth rates were measured at 0 g/L lactic acid, pH 3.0 and 50 g/L lactic acid, pH 2.85, and glucose consumption rates were measured in the presence of 50 g/L lactic acid, pH 2.85. Normalized values and weighted and summed scores were calculated for each strain as described above for malate.

[7] = system: Candida sorbosivorans ATCC 38619; experiment: as above; format: cell-based
Procedure: as §1, §2

[8] = system: Issatchenkia orientalis ATCC 24210; experiment: as above; format: cell-based
Procedure: as §1, §2

[9] = system: Issatchenkia orientalis ATCC PTA-6658; experiment: as above; format: cell-based
Procedure: as §1, §2

[10] = system: Issatchenkia orientalis CD1822; experiment: as above; format: cell-based
Procedure: as §1, §2

[11] = system: Saccharomyces bulderi ATCC MYA-404; experiment: as above; format: cell-based
Procedure: as §1, §2

[12] = system: Candida guilliermondii ATCC 20118; experiment: Glucose consumption rate in YPD shake flasks (second secondary screen); format: cell-based
Procedure: (§3) For the second secondary screen, glucose consumption was measured in YPD media containing 0 g/L malate at pH 3.0 or 200 g/L malate at pH 2.85. Shake flasks were inoculated with biomass harvested from seed flasks grown overnight to an OD600 of 6 to 10. 250 mL baffled glycolytic assay flasks (50 mL working volume) were inoculated to an OD600 of 0.1 and grown at 250 RPM and 30° C. Samples were taken throughout the time course of the assay and analyzed for glucose consumption using a 2700 Biochemistry Analyzer (Yellow Springs Instruments, YSI). The resulting data was plotted and glucose consumption rates were established.

[13] = system: Candida sorbosivorans CD1978; experiment: as above; format: cell-based
Procedure: as §3

[14] = system: Candida vanderwaltii MUCL 30000; experiment: as above; format: cell-based
Procedure: as §3

[15] = system: Issatchenkia orientalis ATCC 60585; experiment: as above; format: cell-based
Procedure: as §3

[16] = system: Candida lambica ATCC 38617; experiment: as above; format: cell-based
Procedure: as §3, §2

[17] = system: Candida sorbosivorans ATCC 38619; experiment: as above; format: cell-based
Procedure: as §3, §2

[18] = system: Issatchenkia orientalis ATCC 24210; experiment: as above; format: cell-based
Procedure: as §3, §2

[19] = system: Issatchenkia orientalis ATCC PTA-6658; experiment: as above; format: cell-based
Procedure: as §3, §2

[20] = system: Issatchenkia orientalis CD1822; experiment: as above; format: cell-based
Procedure: as §3, §2

[21] = system: Saccharomyces bulderi ATCC MYA-404; experiment: as above; format: cell-based
Procedure: as §3, §2

[22] = system: seven wild-type yeast strains; experiment: Range finding: overnight growth in microtiter wells with malate; format: cell-based; settings: YPD, 30° C.
Procedure: The range of malate concentrations to utilize in primary screening procedures was determined by evaluating the ability of seven wild-type yeast strains (Candida sonorensis, Candida zemplinina, I. orientalis strain PTA-6658, I. orientalis strain CD1822, Kluyveromyces lactis, K. marxianus, S. cerevisiae strain CENPK 113-7D) to grow on media containing varying levels of malate. Cells were streaked onto YPD plates and grown overnight. A cell slurry with an OD600 of around 4 was made in YPD media, pH 3.0, and this slurry was used to inoculate microtiter wells containing various concentrations of malate to an OD600 of 0.05. Plates were covered with a gas permeable membrane and incubated in a 30° C./300 rpm shaker overnight. The optical densities of each well were measured at a wavelength of 600 nm in a GENios model plate reader (Tecan), and plates were observed visually for growth. The highest malate concentration that one or more of the strains grew in (350 g/L) was chosen as the upper range for primary screening procedure.

wild-type yeast strains = experiment: Additional primary screen: growth on microtiter plates with malate; format: cell-based; settings: ten strains of 24 re-tested; 200 g/L malate, pH 2.85, microtiter plates, overnight
Procedure: For the primary screening procedure, 91 wild-type yeast strains were screened for growth on microtiter plates at pH 2.85 with 0 g/L, 150 g/L, 300 g/L, or 350 g/L pH 2.85 malate using the same protocol used for range finding. A fresh YPD plate was used for each strain, and a slurry with an OD600 of around 4 was made in YPD media, pH 3.0. The slurry was used to inoculate each well to an OD600 of 0.05. Plates were covered with a gas permeable membrane, and incubated in a 30° C./300 rpm shaker overnight. Optical densities of each well were measured at 600 nm in a GENios model plate reader, and plates were observed visually for growth. To account for plate-to-plate variability, I. orientalis PTA-6658 was included on all plates as a control. […] As such, an additional screen was added wherein the 24 strains that grew as well or better than the I. orientalis control strain were re-tested. […] These ten strains were advanced to the secondary screens. […] However, it is possible that one or more such strains could nonetheless meet the minimum requirements for a commercially viable fermentation process.

[23] = malate, slope of growth rates against acid concentration, scale 0 to 1
[24] = Candida sorbosivorans ATCC 24120, scale 0 to 1
[25] = Candida sorbosivorans ATCC 38619, YPD, 30° C.

O=C(O)/C=C/C(=O)O [Fumarate, trans-butanedioic acid]
water solubility [1]: 4.28 g/kg H2O

CCOS(C)(=O)=O [ethane methyl sulfonate]
cells killed (yeast cells): around 65%

O=C(O)CC(O)C(=O)O (stereo not drawn) [malate, hydroxybutanedioc acid]
Growth rate 200 g/L malate (pH 2.85) ([2]; YPD, 30° C.): 0.42 h^−1 | Normalized grade: Growth rate slope [2, 23]: 1.00 | Normalized grade: Growth rate 200 g/L malate (pH 2.85) ([2]; scale 0 to 1): 0.82 | Growth rate 200 g/L malate (pH 2.85) ([3]; YPD, 30° C.): 0.34 h^−1 | Normalized grade: Growth rate slope [3, 23]: 0.00 | Normalized grade: Growth rate 200 g/L malate (pH 2.85) ([3]; scale 0 to 1): 0.09 | Growth rate 200 g/L malate (pH 2.85) ([4]; YPD, 30° C.): 0.39 h^−1 | Normalized grade: Growth rate slope [4, 23]: 0.92 | Normalized grade: Growth rate 200 g/L malate (pH 2.85) ([4]; scale 0 to 1): 0.55 | Growth rate 200 g/L malate (pH 2.85) ([5]; YPD, 30° C.): 0.36 h^−1 | Normalized grade: Growth rate slope [5, 23]: 0.54 | Normalized grade: Growth rate 200 g/L malate (pH 2.85) ([5]; scale 0 to 1): 0.27 | Growth rate 200 g/L malate (pH 2.85) ([6]; YPD, 30° C.): 0.33 h^−1 | Normalized grade: Growth rate slope [6, 23]: 0.41 | Normalized grade: Growth rate 200 g/L malate (pH 2.85) ([6]; scale 0 to 1): 0.00 | Normalized grade: Growth rate slope ([7]; Candida sorbosivorans ATCC 24120, malate, slope of growth rates against acid concentration, scale 0 to 1): 0.92 | Normalized grade: Growth rate 200 g/L malate (pH 2.85) [7, 24]: 0.36 | Growth rate 200 g/L malate (pH 2.85) [7, 25]: 0.37 h^−1 | Growth rate 200 g/L malate (pH 2.85) ([8]; YPD, 30° C.): 0.39 h^−1 | Normalized grade: Growth rate slope [8, 23]: 0.56 | Normalized grade: Growth rate 200 g/L malate (pH 2.85) ([8]; scale 0 to 1): 0.55 | Growth rate 200 g/L malate (pH 2.85) ([9]; YPD, 30° C.): 0.44 h^−1 | Normalized grade: Growth rate slope [9, 23]: 0.67 | Normalized grade: Growth rate 200 g/L malate (pH 2.85) ([9]; scale 0 to 1): 1.00 | Growth rate 200 g/L malate (pH 2.85) ([10]; YPD, 30° C.): 0.42 h^−1 | Normalized grade: Growth rate slope [10, 23]: 0.67 | Normalized grade: Growth rate 200 g/L malate (pH 2.85) ([10]; scale 0 to 1): 0.82 | Growth rate 200 g/L malate (pH 2.85) ([11]; YPD, 30° C.): 0.39 h^−1 | Normalized grade: Growth rate slope [11, 23]: 1.00 | Normalized grade: Growth rate 200 g/L malate (pH 2.85) ([11]; scale 0 to 1): 0.55 | Glucose consumption rate 200 g/L malate (pH 2.85) ([12]; Candida guilliermondii ATCC 20118, YPD, 30° C.): 1.9 g L^−1 h^−1 | Normalized grade: Glucose consumption rate 200 g/L malate (pH 2.85) ([12]; Candida guilliermondii, scale 0 to 1): 0.30 | Glucose consumption rate 200 g/L malate (pH 2.85) ([13]; YPD, 30° C.): 1.85 g L^−1 h^−1 | Normalized grade: Glucose consumption rate 200 g/L malate (pH 2.85) ([13]; scale 0 to 1): 0.28 | Glucose consumption rate 200 g/L malate (pH 2.85) ([14]; YPD, 30° C.): 1.3 g L^−1 h^−1 | Normalized grade: Glucose consumption rate 200 g/L malate (pH 2.85) ([14]; scale 0 to 1): 0.00 | Glucose consumption rate 200 g/L malate (pH 2.85) ([15]; YPD, 30° C.): 2.7 g L^−1 h^−1 | Normalized grade: Glucose consumption rate 200 g/L malate (pH 2.85) ([15]; scale 0 to 1): 0.70 | Glucose consumption rate 200 g/L malate (pH 2.85) ([16]; YPD, 30° C.): 3.2 g L^−1 h^−1 | Normalized grade: Glucose consumption rate 200 g/L malate (pH 2.85) ([16]; scale 0 to 1): 0.95 | Normalized grade: Glucose consumption rate 200 g/L malate (pH 2.85) [17, 24]: 0.05 | Glucose consumption rate 200 g/L malate (pH 2.85) [17, 25]: 1.4 g L^−1 h^−1 | Glucose consumption rate 200 g/L malate (pH 2.85) ([18]; YPD, 30° C.): 3.1 g L^−1 h^−1 | Normalized grade: Glucose consumption rate 200 g/L malate (pH 2.85) ([18]; scale 0 to 1): 0.90 | Glucose consumption rate 200 g/L malate (pH 2.85) ([19]; YPD, 30° C.): 3.3 g L^−1 h^−1 | Normalized grade: Glucose consumption rate 200 g/L malate (pH 2.85) ([19]; scale 0 to 1): 1.00 | Glucose consumption rate 200 g/L malate (pH 2.85) ([20]; YPD, 30° C.): 3.3 g L^−1 h^−1 | Normalized grade: Glucose consumption rate 200 g/L malate (pH 2.85) ([20]; scale 0 to 1): 1.00 | Glucose consumption rate 200 g/L malate (pH 2.85) ([21]; YPD, 30° C.): 3.15 g L^−1 h^−1 | Normalized grade: Glucose consumption rate 200 g/L malate (pH 2.85) ([21]; scale 0 to 1): 0.93 | highest malate concentration that one or more of the strains grew in [22]: 350 g/L | optical density relative to the same strain in 0 g/L malic acid (wild-type yeast strains): greater than or equal to 50%
